Laboratory results as given in article PMC12540828, “Fexofenadine protects against osteoarthritis by targeting Smad2 and STAT1 to enhance anabolism and binding cPLA2 to inhibit catabolism” (Cell Death Discovery, 2025).
pKd: −log10 of the molar value.

How the values were obtained:
[1] = target: T1, STAT1 (endogenous, human chondrocytes) (Homo sapiens, UniProt P42224); experiment: CETSA, Western blot; type: biochemical; conditions: FFD 10 μM
T1 construct: endogenous, read by Western blot
T1 sequence (P42224 2-750): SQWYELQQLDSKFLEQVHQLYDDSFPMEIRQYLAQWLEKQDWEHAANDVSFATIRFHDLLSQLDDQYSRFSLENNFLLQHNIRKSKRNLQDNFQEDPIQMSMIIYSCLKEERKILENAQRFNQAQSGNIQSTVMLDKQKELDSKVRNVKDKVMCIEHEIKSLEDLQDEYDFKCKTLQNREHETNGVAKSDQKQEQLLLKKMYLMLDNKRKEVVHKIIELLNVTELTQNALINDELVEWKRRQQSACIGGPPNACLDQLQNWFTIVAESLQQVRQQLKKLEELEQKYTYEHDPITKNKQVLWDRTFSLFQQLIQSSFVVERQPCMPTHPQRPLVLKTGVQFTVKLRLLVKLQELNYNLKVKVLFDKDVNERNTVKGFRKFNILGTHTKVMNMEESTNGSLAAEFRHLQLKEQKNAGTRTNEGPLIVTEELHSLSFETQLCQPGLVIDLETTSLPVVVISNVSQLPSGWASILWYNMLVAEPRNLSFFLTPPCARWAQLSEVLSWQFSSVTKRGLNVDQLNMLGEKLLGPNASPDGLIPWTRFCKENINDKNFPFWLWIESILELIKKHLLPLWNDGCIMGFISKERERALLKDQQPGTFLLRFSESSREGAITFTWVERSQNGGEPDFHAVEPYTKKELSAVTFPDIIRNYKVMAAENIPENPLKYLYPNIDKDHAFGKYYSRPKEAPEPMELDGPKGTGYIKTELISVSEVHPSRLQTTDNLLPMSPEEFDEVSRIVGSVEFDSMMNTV

[2] = target: T2, STAT1 (purified recombinant, His-tagged) (Homo sapiens, UniProt P42224); experiment: microscale thermophoresis; type: binding
T2 construct: purified recombinant, His-tagged, RED-NHS labelled
T2 sequence (P42224 2-750): T1 sequence (P42224 2-750)

[3] = target: T3, Smad2 (endogenous, human chondrocytes) (Homo sapiens, UniProt Q15796); experiment: CETSA and DARTS, Western blot; type: biochemical; conditions: CETSA with FFD 10 μM
T3 construct: endogenous, read by Western blot

cPLA2 = target: T4, cPLA2 (Homo sapiens, UniProt P47712); experiment: DARTS, Western blot; type: biochemical; conditions: chondrocyte lysate; protease digestion
T4 construct: gene PLA2G4A; endogenous, chondrocyte lysate, read by Western blot
T4 sequence (P47712 1-749): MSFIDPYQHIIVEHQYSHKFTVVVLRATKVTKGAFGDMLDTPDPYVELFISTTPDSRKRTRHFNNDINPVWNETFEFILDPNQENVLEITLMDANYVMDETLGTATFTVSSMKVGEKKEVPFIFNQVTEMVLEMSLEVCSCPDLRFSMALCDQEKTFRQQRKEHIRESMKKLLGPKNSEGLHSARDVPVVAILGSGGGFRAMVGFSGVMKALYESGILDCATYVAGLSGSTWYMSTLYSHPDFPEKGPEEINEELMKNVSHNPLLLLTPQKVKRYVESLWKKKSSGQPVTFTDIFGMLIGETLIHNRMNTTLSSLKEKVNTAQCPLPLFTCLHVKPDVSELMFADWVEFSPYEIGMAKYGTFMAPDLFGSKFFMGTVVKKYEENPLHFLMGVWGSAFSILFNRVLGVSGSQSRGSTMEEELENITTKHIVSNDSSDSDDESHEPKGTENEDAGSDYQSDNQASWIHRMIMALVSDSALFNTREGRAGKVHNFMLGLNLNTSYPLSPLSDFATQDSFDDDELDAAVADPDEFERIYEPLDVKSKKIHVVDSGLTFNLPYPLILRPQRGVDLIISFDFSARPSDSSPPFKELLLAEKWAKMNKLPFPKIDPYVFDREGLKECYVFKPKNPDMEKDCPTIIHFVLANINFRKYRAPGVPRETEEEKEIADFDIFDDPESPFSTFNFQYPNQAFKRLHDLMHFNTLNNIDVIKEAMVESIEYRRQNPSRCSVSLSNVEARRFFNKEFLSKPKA

T3 sequence (Q15796 2-467): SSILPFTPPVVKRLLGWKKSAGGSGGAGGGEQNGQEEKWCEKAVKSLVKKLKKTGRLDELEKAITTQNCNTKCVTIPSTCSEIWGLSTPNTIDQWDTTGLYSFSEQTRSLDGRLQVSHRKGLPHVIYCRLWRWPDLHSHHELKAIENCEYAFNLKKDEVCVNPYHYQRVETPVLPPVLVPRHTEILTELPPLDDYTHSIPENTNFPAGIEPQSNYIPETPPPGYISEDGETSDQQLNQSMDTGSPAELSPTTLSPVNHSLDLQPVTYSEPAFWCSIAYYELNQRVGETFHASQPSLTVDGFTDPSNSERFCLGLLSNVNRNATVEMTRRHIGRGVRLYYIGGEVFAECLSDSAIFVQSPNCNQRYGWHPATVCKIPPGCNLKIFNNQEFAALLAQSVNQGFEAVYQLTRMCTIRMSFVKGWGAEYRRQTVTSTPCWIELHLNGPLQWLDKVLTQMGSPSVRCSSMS

CC(C)(C(=O)O)c1ccc(C(O)CCCN2CCC(C(O)(c3ccccc3)c3ccccc3)CC2)cc1 (stereo not shown) [Fexofenadine]
Tm with FFD (control 50.49) [1]: 60.01 °C
pKd [2]: 5.52
CETSA and DARTS, Western blot [3]: DARTS and CETSA experiments subsequently confirmed the interaction between FFD and Smad2
DARTS, Western blot (cPLA2): cPLA2 remained undigested by the protease following incubation with FFD
